Experiments:
[1] = Slurry complexation of CFZ-API with SBECD and citric acid: dissolved complexed concentration; type: physicochemical
Description: In a 525 L stainless steel jacketed cooled tank controlled to 2° C.-8° C., a suspension of 2.0 kg carfilzomib-API (CFZ-API), 246 kg water for injection (WFI), and 100 kg sulfobutylether beta-cyclodextrin (SBECD) was prepared. Specifically, in the 525 L stainless steel jacketed cooled tank controlled to 2° C.-8° C., 100 kg SBECD was dissolved in 246 kg WFI. The Carfilzomib suspension was then prepared using 2.0 kg of CFZ-API. Mixing was performed using an impeller mixer to maintain suspension of the CFZ-API solids and dissolve the SBECD. In the same vessel, a probe style rotor-stator high shear mixer (homogenizer) was used as well as the low shear impeller. The high shear mixer was operated for approximately 1 hour yielding an even suspension and reduction of particle size for any larger primary particles or agglomerated API. After a suspension was achieved, 1.96 kg of citric acid was added as a 16% aqueous solution. The pH of the solution was then lowered inducing partial solubilization of the CFZ-API followed by and complexation due to the presence of SBECD. Mixing was continued for a further 24 hours with both the impeller and the high shear mixer and a dissolved concentration of CFZ-API of greater than 5.1 mg/mL was achieved. […]

[2] = Solubility of carfilzomib as a function of SBECD concentration, pH and temperature; type: physicochemical; settings: SBECD solutions, citric acid 30 mM, pH 1.5 and pH 3.5, 5° C. and 25° C., 24 hours to equilibrate, FIG. 6
Description: The experiments at acidic conditions below the target pH values and titrated to pH 1.5 or 3.5 using aqueous sodium hydroside solution. Measurements of solubilized concentration were those from samples analyzed after 24 hours of time to equilibrate.

CC(C)C[C@H](NC(=O)[C@H](CCc1ccccc1)NC(=O)CN1CCOCC1)C(=O)N[C@@H](Cc1ccccc1)C(=O)N[C@@H](CC(C)C)C(=O)[C@@]1(C)CO1 [carfilzomib]
effect of higher SBECD concentration on solubility ([1]; FIG. 3): increased the solubility | dissolved concentration of CFZ-API ([1]; SBECD/WFI suspension plus citric acid, mixing 24 hours, 2-8° C., 400 L batch): greater than 5.1 mg/mL | solubility (physchem): < 10 µg/mL | solubility difference between low and high temperature [2]: No significant differences in solubility

Source: patent publication US20130303465A1, “Cylodextrin Complexation Methods for Formulating Peptide Proteasome Inhibitors” (ONYX THERAPEUTICS, INC., priority 2012, published 2013)
